Earlier results on one substance are cited in US11938184B2, “Compositions and methods for treating Crohn's Disease and related conditions and infections” (priority 2012, dated 2024).

For this series, the system named is Crohn's disease fistulae.

infliximab: the response in fistulae (ACCENT 2 trial, after 14 weeks) was 60%. The fistulae maintaining closure (ACCENT 2 trial, at 1 year) was 36%. Where the note is “infliximab alone”, the “healing of perianal fistulae” value is recorded as 46-78% and the “healing of recto-vaginal fistulae” value is reported as 14-30%. Also, the fistulae initially healed (initial phase II and subsequent phase III trials, 296 patients) is recorded as 56-68%. Moreover, the “median duration of fistula closure” value (normally requiring 3 doses of infliximab) is recorded as “approximately 3 months”.
